Source: patent US4278762A, “Method for the quantitative determination of plasminogen activators” (Pentapharm AG, priority 1976, dated 1981)
Structures can show the parent of a compound that is named as a salt. Non-standard residues stand in square brackets, D forms with d. Residues, ends and D or L forms follow the SMILES beside them. *: point of attachment. pNA = O=[N+]([O-])c1ccc(N*)cc1; Chg = N[C@H](C(=O)O)C1CCCCC1; Cbz = O=C(OCc1ccccc1)*; Bz = O=C(c1ccccc1)*

Assays:
Format in all cases: biochemical
trypsin = molecular target: T1, trypsin (Bos taurus, UniProt P00760); assay: Determination of trypsin in duodenal juice with substrate; conditions: per ml of test sample; pH 8.4, ionic strength 0.30, 37° C., 405 nm
T1 construct: b360 concerns trypsin in duodenal juice
T1 sequence (P00760 24-246): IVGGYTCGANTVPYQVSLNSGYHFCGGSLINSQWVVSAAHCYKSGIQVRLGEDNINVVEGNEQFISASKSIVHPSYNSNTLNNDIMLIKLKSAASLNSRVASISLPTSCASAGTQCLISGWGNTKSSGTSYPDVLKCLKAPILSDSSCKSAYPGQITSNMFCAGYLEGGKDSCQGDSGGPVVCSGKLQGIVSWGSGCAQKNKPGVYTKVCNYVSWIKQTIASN
Procedure: The determination of trypsin in duodenal juice can be carried out for instance as follows: 1.79 ml of tris-imidazole buffer having a pH of 8.4 and an ionic strength of 0.30 are mixed with 0.01 ml of duodenal juice at 37° C. in a measuring vessel. Thereafter, the mixture is rapidly mixed with 0.2 ml of a 2×10^-3 molar solution of a substrate of this invention. The quantity of p-nitroaniline released from the substrate by the action of trypsin is determined by measuring the change in the optical density Δ OD per minute at a wave length of 405 nm. The quantity of p-nitroaniline released per minute or the corresponding change in the optical density is proportional to the trypsin activity. When using the substrate prepared according to Example 10, i.e. N^α -Cbo-C.cyclohexylglycyl-Gly-Arg-pNA.HCl, trypsin can be determined for instance at concentrations as low as 0.01 NF unit per ml of test sample.

human plasmin = assay: Enzyme quantity splitting substrate I at 1 μmole pNA per minute (Table II), plasmin; conditions: 37° C., pH 8.4, ionic strength 0.3, substrate concentration 10^-4 mole
Procedure: CU is the casein unit which is measured on casein under standard conditions.
(§1) In the first column of Table II are listed the quantities of the various enzymes which split substrate I at a temperature of 37° C., a pH of 8.4, an ionic strength of 0.3 and a substrate concentration of 10^-4 mole with a velocity of 1 μmole per minute. In the second column the corresponding enzyme quantity, expressed in other enzyme units, is indicated.

urine kallikrein = assay: Enzyme quantity splitting substrate I at 1 μmole pNA per minute (Table II), urine kallikrein
Procedure: BAEE (Benzoyl-L-arginine ethyl ester)--1 BAEE unit of urine kallikrein is that quantity of enzyme which hydrolyzes 1 μmole of benzoyl-L-arginine ethyl ester per minute under standard conditions.
as §1

bovine trypsin [1] = molecular target: T2, bovine trypsin (Bos taurus, UniProt P00760); assay: Enzyme quantity splitting substrate I at 1 μmole pNA per minute (Table II), trypsin; conditions: 37° C., pH 8.4, ionic strength 0.3, substrate concentration 10^-4 mole
T2 sequence (P00760 24-246): T1 sequence (P00760 24-246)
Procedure: NF is the trypsin unit, i.e. that quantity of enzyme which causes a change in the absorption Δ OD of 0.003 per minute, measured on benzoyl-L-arginine ethyl ester under standard conditions (cf. "The National Formulary XII", edited by "The American Pharmaceutical Association", Washington, D.C., 1965, pages 417-418).
as §1

urokinase [2] = molecular target: T3, urokinase (Homo sapiens, UniProt P00749); assay: Kinetic constants Km and vmax of substrate hydrolysis by urokinase (Lineweaver-Burk); conditions: per CTA unit, pH 8.4, ionic strength 0.30, 37° C.
T3 construct: also urine of healthy test persons
Procedure: The enzyme and the substrate are mixed in a buffer solution, and the hydrolysis reaction is followed for 2 to 30 minutes. The concentration of substate [S] is varied, whereas the enzyme concentration is kept constant. If the extinction (OD=optical density) is plotted in a co-ordinate system as a function of time, a curve is obtained the tangent of which at time zero corresponds to the ideal course of the hydrolysis. By means of this tangent the initial rate of the hydrolysis can be determined.
If 1/v is plotted against (1/[S]), a Lineweaver-Burk diagram (cf. "Kurzes Lehrbuch der Biochemie" by P. KARLSON, Georg Thieme-Verlag, Stuttgart, 1967, p. 70) is obtained from which vmax and Km can be determined graphically.
For the determination of the kinetic constants Km and vmax listed in Table I aqueous dilution series of the substrates with concentrations from 0.1 to 2 μmoles/ml were used. […] The value of the quantity of p-nitroaniline formed per minute is a measure for the rate of hydrolysis at a given substrate concentration. […] The kinetic constants Km and vmax were determined from the points of intersection of the curves with the abscissa and the ordinate.

human thrombin = assay: Enzyme quantity splitting substrate I at 1 μmole pNA per minute (Table II), thrombin
Procedure: NIH is a unit which was standardized by the "US National Institute of Health".
as §1

bovine trypsin [3] = molecular target: T2, bovine trypsin; assay: Activity of bovine trypsin at constant substrate and enzyme concentrations (Table IV); conditions: substrate concentration 2 × 10^-4 M; pH 8.4, ionic strength 0.30, 37° C., 405 nm
Procedure: The results listed in Table IV were obtained under the following experimental conditions: In a measuring vessel 1.7 ml of tris-imidazole buffer having a pH of 8.4 and an ionic strength of 0.30 were mixed at 37° C. with 0.1 ml of an aqueous trypsin solution having a concentration of 2 NF units of trypsin per ml. To the mixture 0.2 ml of a 2×10^-3 molar solution of the substrate to be tested was added. Thereafter, the quantity of p-nitroaniline released from the substrate by the action of the trypsin was determined by measuring the change in the optical density Δ OD per minute at a wave length of 405 nm.

urokinase [4] = molecular target: T3, urokinase; assay: Enzyme quantity splitting substrate I at 1 μmole pNA per minute (Table II), urokinase; conditions: 37° C., pH 8.4, ionic strength 0.3, substrate concentration 10^-4 mole
Procedure: as §1

urokinase [5] = molecular target: T3, urokinase; assay: Determination of urokinase concentration with substrate I (ΔOD versus urokinase quantity); conditions: ΔOD within 10 minutes
Procedure: In the appended drawing the sole figure represents a graph in which the change in the optical density Δ OD caused by the hydrolytic action of various quantities of urokinase on substrate I within 10 minutes is plotted as a function of the urokinase quantity in a co-ordinate system. From this graph it can be seen that urokinase concentrations can be determined accurately in the range of 1 to 10 CTA/ml. In the determination of the urokinase content in the urine of 14 healthy test persons values of about 8 CTA units per ml of urine were found.

[6] = 37° C., pH 8.4, ionic strength 0.3, substrate concentration 10^-4 mole

enzyme quantity releasing 1 μmole of pNA per minute from substrate I, in corresponding other units (human plasmin) | enzyme quantity releasing 1 μmole of pNA per minute from substrate I, in corresponding other units (urine kallikrein; [6]) | splitting by kallikrein present in urine (in words) (urine kallikrein; conclusion from Table II) | enzyme quantity releasing 1 μmole of pNA per minute from substrate I, in corresponding other units (bovine trypsin [1]) | Vmax (urokinase [2]) | enzyme quantity releasing 1 μmole of pNA per minute from substrate I, in corresponding other units (human thrombin; [6]) | splitting by thrombin (in words) (human thrombin; conclusion from Table II) | Quantity in nanomoles of p-nitroaniline enzymatically released from the substrate by 1 NF unit of trypsin in 1 minute (bovine trypsin [3]) | enzyme quantity releasing 1 μmole of pNA per minute from substrate I, in corresponding other units (urokinase [4]) | range of urokinase concentrations that can be determined accurately (urokinase [5]) | SMILES | lowest trypsin concentration that can be determined (trypsin)
– | – | – | – | – | – | – | – | – | – | N=C(N)NCCC[C@H](NC(=O)CNC(=O)[C@@H](NC(=O)OCc1ccccc1)C1CCCCC1)C(=O)Nc1ccc([N+](=O)[O-])cc1 [Substrate X, N^α -Cbo-C.Cyclohexylglycyl-Gly-Arg-pNA.HCl] (Cbz-[Chg]-Gly-Arg-pNA) | ≥ 0.01 NF unit per ml
6850 CU | 1688 BAEE | split but little | 36.6 NF | 7.27 × 10^-5 μmole/min. CTA | 2174 NIH | split very little and unspecifically | 20,9 nanomoles | 20250 CTA | 1 to 10 CTA/ml | CC(C)[C@H](NC(=O)c1ccccc1)C(=O)NCC(=O)N[C@@H](CCCNC(=N)N)C(=O)Nc1ccc([N+](=O)[O-])cc1 [Substrate I, N^α -Bz-Val-Gly-Arg-pNA.HCl] (Bz-Val-Gly-Arg-pNA) | –
